Drawing on PubChem BioAssay AID815 (Emory University Molecular Libraries Screening Center, 2007), this text covers EC50 and CC50 for 29 molecules.

This assay has as its system Vero cells, measles virus yield reduction, TCID50, 36 h. The assay can be described thus: antiviral potency against measles with cytotoxicity – cell-based, EC50 and CC50, dose response (AID 815). The conditions noted are these: for CC50: measured here: cytotoxicity, viable cells.

Records with an inconclusive call do not appear. The source made the active and inactive calls.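 Rule for the calls: active = compounds whose half-maximal effective concentration EC50 against measles virus is under 10 µM; inactive = the rest, inconclusive results apart.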

Usually EC50 stands for the concentration that produces a half-maximal response. For orientation: CC50 means the concentration giving 50% cytotoxicity. Read a high CC50 as better tolerance by the cells. Turning to `Cn1nc(C(F)(F)F)cc1C(=O)Nc1ccc(S(=O)(=O)N2CCCCC2C(=O)O)cc1` (stereo not drawn), the EC50 was > 75 µM (inactive) and the CC50 was > 300 µM.
Taken in the same sequence, the figures for `O=C(Nc1ccc(S(=O)(=O)N2CCCC2)cc1)c1ccc(C(F)(F)F)cc1[N+](=O)[O-]` were > 75 µM (inactive) and > 300 µM.
For `Cn1nc(C(F)(F)F)cc1C(O)Cc1ccc(S(=O)(=O)N2CCCC2)cc1` (stereo not drawn) the same measures were 41 µM (inactive) and > 300 µM.
For `Cc1cc(C(=O)Nc2ccc(S(=O)(=O)N3CCCC3)cc2)n(C)n1` the same measures were > 75 µM (inactive) and > 300 µM.
Take `Cn1nc(C(F)(F)F)cc1COc1ccc(S(=O)(=O)N2CCCC2)cc1`: the EC50 is > 75 µM (inactive) and the CC50 was > 300 µM.
Consider `O=C(Nc1ccc(S(=O)(=O)N2CCCC2)cc1)c1nc2ccccc2s1`, for which the EC50 is > 75 µM (inactive) and the CC50 is > 300 µM.
Taken in the same sequence, the figures for `O=C(Nc1ccc(S(=O)(=O)N2CCCC2)cc1)c1cc(C(F)(F)F)ccc1F` were > 75 µM (inactive) and 76 µM.
Taken in the same sequence, the figures for `Cn1nc(C(F)(F)F)cc1C(=O)Nc1ccc(S(=O)(=O)N2CCCCC2)cc1` were < 2.3 µM and > 300 µM.
On to `Cn1nc(C(F)(F)F)cc1C(=O)Nc1ccc(S(=O)(=O)N2CCOCC2)cc1`, for which the EC50 was 43 µM (inactive) and the CC50 was > 300 µM.
Taken in the same sequence, the figures for `O=C(Nc1ccc(S(=O)(=O)N2CCCC2)cc1)c1ccccc1C(F)(F)F` were > 75 µM (inactive) and > 300 µM.
For `COc1ccc(Br)c(C(=O)Nc2ccc(S(=O)(=O)N3CCCC3)cc2)c1` the same measures were > 75 µM (inactive) and > 300 µM.
Taken in the same sequence, the figures for `O=C(Nc1ccc(S(=O)(=O)N2CCCC2)cc1)c1cccs1` were > 75 µM (inactive) and > 300 µM.
`O=C(Nc1ccc(S(=O)(=O)N2CCCC2)cc1)c1ccco1`: the EC50 was > 75 µM (inactive) and the CC50 was > 300 µM.
Taken in the same sequence, the figures for `Cc1nc(C(F)(F)F)ccc1C(=O)Nc1ccc(S(=O)(=O)N2CCCC2)cc1` were > 75 µM (inactive) and > 300 µM.
Taken in the same sequence, the figures for `O=C(Nc1ccc(S(=O)(=O)N2CCCC2)cc1)c1ccc(F)cc1` were > 75 µM (inactive) and > 300 µM.
Taken in the same sequence, the figures for `Cc1cc(CNc2ccc(S(=O)(=O)N3CCCC3)cc2)n(C)n1` were > 75 µM (inactive) and > 300 µM.
Regarding `Cn1nc(C(C)(C)C)cc1C(=O)Nc1ccc(S(=O)(=O)N2CCCC2)cc1`, the EC50 was 25 µM (inactive) and the CC50 is 140 µM.
On to `O=C(Nc1ccc(S(=O)(=O)N2CCCC2)cc1)c1ccc(C(F)(F)F)cc1`, for which the EC50 is 48 µM (inactive) and the CC50 is > 300 µM.
`Cn1nc(C(F)(F)F)cc1C(=O)Nc1ccc(S(=O)(=O)N2CCCC2)cc1N`: the EC50 was > 75 µM (inactive) and the CC50 is > 300 µM.
Taken in the same sequence, the figures for `O=C(Nc1ccc(S(=O)(=O)N2CCCC2)cc1)c1ccc([N+](=O)[O-])cc1Cl` were > 75 µM (inactive) and > 300 µM.
As for `O=C(Nc1ccc(S(=O)(=O)N2CCCC2)cc1)c1cc(C(F)(F)F)nn1Cc1ccccc1`, the EC50 is > 75 µM (inactive) and the CC50 was 37 µM.
With `Cn1nc(C(F)(F)F)cc1C(=O)Cc1ccc(S(=O)(=O)N2CCCC2)cc1`, the EC50 is 15.5 µM (inactive) and the CC50 is > 300 µM.
Taken in the same sequence, the figures for `Cn1nc(C(F)(F)F)cc1C(=O)Nc1ccc(S(=O)(=O)N2CCCC2)cc1O` were > 75 µM (inactive) and 288 µM.
In the case of `Cn1nc(C(F)(F)F)cc1C(=O)Nc1ccc(S(=O)(=O)N2CCC[C@H]2C(=O)OC(=O)c2ccccc2)cc1`, the EC50 is 14 µM (inactive) and the CC50 stood at 100 µM.
Regarding `O=C(Nc1ccc(S(=O)(=O)N2CCCC2)cc1)c1cccc(C(F)(F)F)c1`, the EC50 was > 75 µM (inactive) and the CC50 was > 300 µM.
Turning to `O=C(Nc1ccc(S(=O)(=O)N2CCCC2)cc1)c1nccn1-c1ccccc1C(F)(F)F`, the EC50 was 65 µM (inactive) and the CC50 is > 300 µM.
For `Cn1nc(C(F)(F)F)cc1C(=O)Nc1ccc(S(=O)(=O)N2CCC[C@H]2C(=O)O)cc1` the same measures were 23 µM (inactive) and > 300 µM.
On to `Cn1nc(C(F)(F)F)cc1C(=O)Nc1ccc(S(=O)(=O)N2CCNCC2)cc1`, for which the EC50 was 28 µM (inactive) and the CC50 came to 126 µM.
Taken in the same sequence, the figures for `Nc1ccc(C(=O)Nc2ccc(S(=O)(=O)N3CCCC3)cc2)c(Cl)c1` were > 75 µM (inactive) and > 300 µM.
